Where a name gives a salt, the structure may show the parent alone.
How the values were obtained:
[1] = target: T1, Neuropeptide Y receptor type 2 (Homo sapiens, UniProt P49146)
T1 sequence (P49146 whole entry): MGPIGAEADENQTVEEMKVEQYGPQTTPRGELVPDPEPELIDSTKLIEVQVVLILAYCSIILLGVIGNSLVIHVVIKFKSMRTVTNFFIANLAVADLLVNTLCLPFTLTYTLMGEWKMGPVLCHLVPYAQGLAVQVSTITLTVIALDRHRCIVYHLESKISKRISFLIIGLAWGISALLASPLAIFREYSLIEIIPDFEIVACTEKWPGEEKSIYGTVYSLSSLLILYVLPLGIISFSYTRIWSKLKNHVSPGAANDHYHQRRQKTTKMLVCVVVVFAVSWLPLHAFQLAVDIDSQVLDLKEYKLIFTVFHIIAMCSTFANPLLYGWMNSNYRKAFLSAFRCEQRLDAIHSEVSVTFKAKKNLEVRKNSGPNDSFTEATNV

[2] = target: T2, Neuropeptide Y receptor type 5 (Homo sapiens, UniProt Q15761)
T2 sequence (Q15761 whole entry): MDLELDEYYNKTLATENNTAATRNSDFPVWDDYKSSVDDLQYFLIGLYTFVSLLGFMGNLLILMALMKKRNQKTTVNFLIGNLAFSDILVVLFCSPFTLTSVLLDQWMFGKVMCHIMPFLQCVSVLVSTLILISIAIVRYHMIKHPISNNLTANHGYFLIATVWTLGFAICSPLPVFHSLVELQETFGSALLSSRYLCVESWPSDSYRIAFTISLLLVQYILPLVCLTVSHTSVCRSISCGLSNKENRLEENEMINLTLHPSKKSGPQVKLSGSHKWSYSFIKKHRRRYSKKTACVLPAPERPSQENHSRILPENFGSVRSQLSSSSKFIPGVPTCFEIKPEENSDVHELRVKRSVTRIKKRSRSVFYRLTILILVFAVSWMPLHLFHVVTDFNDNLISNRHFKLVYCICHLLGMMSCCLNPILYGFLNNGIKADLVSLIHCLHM

[3] = target: T3, Neuropeptide Y receptor type 1 (Homo sapiens, UniProt P25929)
T3 sequence (P25929 whole entry): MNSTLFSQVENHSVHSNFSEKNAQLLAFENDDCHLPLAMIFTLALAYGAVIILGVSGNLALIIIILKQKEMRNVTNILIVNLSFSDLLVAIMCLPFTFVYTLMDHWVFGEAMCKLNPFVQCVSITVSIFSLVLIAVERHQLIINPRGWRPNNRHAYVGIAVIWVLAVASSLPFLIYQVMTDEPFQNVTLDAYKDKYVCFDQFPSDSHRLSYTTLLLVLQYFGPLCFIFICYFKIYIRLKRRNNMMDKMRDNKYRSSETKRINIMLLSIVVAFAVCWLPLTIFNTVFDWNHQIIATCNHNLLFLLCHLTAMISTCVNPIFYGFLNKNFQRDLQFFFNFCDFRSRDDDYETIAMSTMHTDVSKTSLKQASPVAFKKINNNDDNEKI

IC50 [1] [nM]	IC50 [2] [nM]	IC50 [3] [nM]	SMILES
> 10000	25	> 10000	CC1(C)CC(=O)C(C2C3=C(CC(C)(C)CC3=O)Oc3ccccc32)C(=O)C1 (stereo not given) [CAS_6508-43-6]
> 10000	4.3	–	CC(C)n1c2c(c3cc(NC(=O)N(C)CCc4ccncc4)ccc31)CCCC2 [3-(5,6,7,8-tetrahydro-9-isopropyl-carbazol-3-yl)-1-methyl-1-(2-pyridin-4-yl-ethyl)-ureanbsphydrochloride]

Reference: BindingDB's records for doi:10.1124/jpet.105.099705 (Meiji Seika Kaisha, 2006)
